The values below come from US20040142899A1, “Compositions and methods for enhanced biostability and altered biodistribution of oligonucleotides in mammals” (ISIS Pharmaceuticals, Inc., priority 1990, published 2004).

Where “and” joins values, the source holds several entries; their conditions need not be identical. Equal entries are not always repeated.

Data set [1] relates to MDR1 mRNA. Briefly: MDR1 mRNA expression by Northern blotting in MDR 3T3 cells. Type of data set: cell-based, human.
In data set [2] the test system is P-glycoprotein. Briefly: Cell surface P-glycoprotein by immunofluorescent staining and flow cytometry in MDR 3T3 cells. Type of data set: cell-based, human. The conditions noted are these: 1 μm administered with LIPOFECTIN, parallel experiment. As for the experimental part:
MDR 3T3 cells were treated with various concentrations of oligonucleotides ISIS 11073 (5′-cholesterol 5995), or ISIS 12064 (5′-cholesterol 10221; scrambled control) for 48 hours in serum free medium. The cells were recovered and stained with an anti-P-glycoprotein monoclonal antibody directed against a surface epitope, followed by a phycoerythrin-conjugated second antibody. The level of cell surface fluorescence in viable cells was quantitated using a flow cytometer; light scatter parameters were set so as to exclude non-viable cells. […] The results represent means and standard errors for 6 determinations.
Transfected MDR NIH 3T3 cells were grown and treated with oligonucleotides as described in Example (9)(B). MDR1 mRNA expression was measured by Northern blotting as described in Example (9)(C). In order to measure cell surface P-glycoprotein levels by flow cytometry, cells were seeded in 60 mm dishes at 1.2×10^6/plate in 5 ml of medium, grown for one day in 10% FBS/DMEM, and exposed to the oligomers in serum free medium. […] The level of R-PE fluorescence in viable cells (as determined by light scatter) was quantitated using the Cicero software application (Cytomation, Fort Collins, Co.) on a Becton Dickinson flow cytometer.

In data set [3] the test system is P-glycoprotein. The experiment in a line: P-glycoprotein expression by Western blotting in MDR 3T3 cells. Type of data set: cell-based, human. As to conditions: maximum only after 72 hours exposure. As for the experimental part: Transfected MDR NIH 3T3 cells were grown and treated with oligonucleotides as described in Example (9)(B). In order to measure P-glycoprotein expression by Western blotting, cells were seeded in 60 mm dishes at 1.2×10^6 per dish and incubated for 24 hours in serum containing medium. The cells were treated with the oligomers for various times in serum free medium as described above. Cells were then extracted in lysis buffer (20 mM Tris, pH 7.5, 2 mM EDTA, 500 mM EGTA, 2 mM PMSF, 1 mM DTT, aprotonin (10 ug/ml), 0.5% Triton-X) and sonicated briefly. The lysate was spun in a microfuge tube for 20 minutes at 4° C. and the resulting supernatant was checked for protein content. Equal amounts of protein (usually 20 ug) were mixed with SDS sample buffer and boiled. Protein samples were separated by 8% SDS PAGE and the resolved proteins were electrophoretically transferred onto polyvinyllidene fluoride membranes (Millipore, Bedford, Mass.). The membranes were blocked (with 3% BSA, 2% non fat dry milk in PBS) and then treated with 2 ug/ml C219 anti-P-glycoprotein antibody (Signet, Dedham, Mass.). After washing three times with 0.1% Tween 20, the membranes were incubated with rabbit anti-mouse antibody (Cappel, Durham, N.C.). Immunoreactive proteins were visualized either by ECL (Enhanced Chemiluminescence, Amersham, Arlington Heights, Ill.) or with ^125I secondary antibodies.

Data set [4] has as its system MDR1 mRNA. The experiment in a line: MDR1 mRNA expression by Northern blotting in MDR 3T3 cells. As to conditions: for MDR1 mRNA Level (arbitrary units) / % Control (MDR1 mRNA): oligonucleotide 1 μm, with Lipofectin; for MDR1 mRNA Level (arbitrary units): serum free medium; for % Control (MDR1 mRNA): control = untreated cells. In kind it is cell-based, human. On the procedure: NIH 3T3 cells transfected with a plasmid containing the human MDR1 gene (pSK1 MDR) have been previously described (Kane et al., Gene, 1989, 84, 439). These cells have proven to be useful models for the study of multi-drug resistance phenomena. Cells were grown in DMEM media containing 10% fetal bovine serum (FBS) and 60 ng/ml colchicine in an atmosphere of 95% air, 5% CO2.
Cells were grown in […] flasks.
To measure MDR1 mRNA expression by Northern blotting, total cellular RNA was isolated by lysis in 4M guanidium isothiocyanate followed by a cesium chloride gradient, and the RNA was resolved on 1.2% agarose gels containing 1.2% formaldehyde and transferred to nitrocellulose membranes (Dean et al., J. Biol. Chem., 1994, 269, 16416). The blots were hybridized with a ^32P radiolabeled human MDR1 cDNA probe. The MDR1 cDNA probe was isolated by performing a polymerase chain reaction on the pSK1 MDR plasmid, as described previously (Alahari et al., Nucl. Acids Res., 1993, 21, 4079). The following oligonucleotide primers were used for PCR: […]
The resulting fragment was checked on an agarose gel and was radiolabeled with ^32P-dCTP using a commercially available random primer labeling kit (Amersham, Arlington Heights, Ill.) according to the manufacturer's instructions. The filters were hybridized overnight in hybridization buffer (25 mM KPO4, pH 7.4; 5×SSC; 5×Denhardt's solution, 100 ug/ml Salmon sperm DNA and 50% formamide) (Alahari et al., Nucl. Acids Res., 1993, 21, 4079). This was followed by two washes with 1×SSC, 0.1% SDS and two washes with 0.25×SSC, 0.1% SDS. Hybridizing bands were visualized by exposure to X-OMAT AR film and quantitated using a PhosphorImager™ (Molecular Dynamics, Sunnyvale, Calif.). To confirm equal loading of RNA, the blots were stripped and reprobed with a ^32P-labeled beta-actin probe (Clontech, Palo Alto, Calif).
In initial experiments, the MDR 3T3 cells were exposed to 1.0 μm concentrations of several different antisense oligonucleotides, or control oligonucleotides, in the presence of 20 ug/ml LIPOFECTIN® for 24 hours. […] NIH 3T3 cells transfected with pSK1 MDR plasmid were grown to 90% confluence and treated with oligonucleotide (1 μm) for 24 hours in the presence of Lipofectin® in serum free medium. Total RNA was isolated and fractionated on agarose formaldehyde gels and blotted onto nitrocellulose membranes. These membranes were probed with a ^32P radiolabeled 1.0 kb MDR1 cDNA, and then stripped and reprobed with a ^32P radiolabeled beta-actin cDNA probe to confirm equal loading of RNA, allowing the levels of MDR1 transcripts to be normalized with regard to the beta-actin bands. Transcript levels were quantitated using a PHOSPHORIMAGER™ (Molecular Dynamics, Sunnyvale, Calif.); the values are expressed in arbitrary units (the beta-actin transcripts were essentially constant).

The test system of data set [5] is DNA complementary strand, Oligomer 40. Briefly: Melting analysis (Tm) of 2′-O-pentylamino linker strand against DNA complementary strand. In kind it is binding. As for the experimental part:
(§1) The test oligonucleotides (either the phosphodiester, phosphorothioate, cholic acid conjugated phosphodiester, cholic acid conjugated phosphorothioate or 5′-aminolink intermediate phosphodiester or phosphorothioate oligonucleotides of the invention or otherwise) and either the complementary DNA or RNA oligonucleotides were incubated at a standard concentration of 4 μM for each oligonucleotide in buffer (100 mM NaCl, 10 mM Na-phosphate, pH 7.0, 0.1 mM EDTA). Samples were heated to 90 degrees C. and the initial absorbance taken using a Guilford Response II spectro-photometer (Corning, Inc., Corning, N.Y.). Samples were then slowly cooled to 15° C. and then the change in absorbance at 260 nm was monitored during the heat denaturation procedure. The temperature was elevated 1 degree/absorbance reading and the denaturation profile analyzed by taking the 1st derivative of the melting curve. Data was also analyzed using a two-state linear regression analysis to determine the Tm's. The results of these tests are shown in Table 3 as are the HPLC retention times of certain of the test compounds.
(§2) Melting analysis was conducted as per the method of Procedure B(1)(b).

The test system of data set [6] is RNA complementary strand, Oligomer 41. The experiment in a line: Melting analysis (Tm) of 2′-O-pentylamino linker strand against RNA complementary strand. In kind it is binding. As for the experimental part: as §1, §2
Data set [7] has as its system ICAM-1 protein.
Data set [8] has as its system c-raf mRNA. The experiment in a line: c-raf mRNA levels in murine liver (gene target specificity). In kind it is in vivo, mouse. The conditions noted are these: 10 mg/kg. On the procedure:
(§3) Mice were treated with oligonucleotides and examined as follows. […] Then, to induce ICAM-1 expression, bacterial lipopolysaccharide (LPS) was injected into the mice. After 2 hours, the mice were sacrificed, and particular organs, or specific portion thereof, were removed for further study. RNA was prepared from isolated, homogenized tissues essentially according to the guanidinium/CsCl purification method of Chirgwin et al. (Biochemistry, […], 18, 5294), electrophoresed and transferred to nylon membranes for hybridization studies (Northern analysis) according to methods well known in the art. In order to detect mouse ICAM-1 mRNA, a radiolabelled probe was prepared by random oligonucleotide-primed synthesis using a mouse ICAM-1 clone as a template. The blots were stripped and reprobed with a ^32P-labeled glyceraldehyde 3-phosphate dehydrogenase (G3PDH) probe (Clontech Laboratories, Inc., Palo Alto, Calif.) in order to confirm equal loading of RNA and to allow the levels of ICAM-1 transcripts to be normalized with regard to the G3PDH signals. Hybridizing bands were visualized by exposure to X-OMAT AR film and quantitated using a PHOSPHORIMAGER™ essentially according to the manufacturer's instructions (Molecular Dynamics, Sunnyvale, Calif.).
(§4) In similar experiments, the sequence (gene target) specificity of the 5′-cholesterol antisense oligonucleotide ISIS 8005 was examined.

The test system of data set [9] is PECAM-1 mRNA. Briefly: PECAM-1 mRNA levels in murine liver (gene target specificity). Type of data set: in vivo, mouse. The conditions noted are these: 10 mg/kg. On the procedure: as §3, §4
Data set [10] has as its system mouse ICAM-1 mRNA. Briefly: ICAM-1 mRNA levels in LPS-treated mice (Northern analysis). In kind it is in vivo. On the procedure:
as §3

In data set [11] the test system is E2 gene of bovine papilloma virus type 1 (BPV-1). The experiment in a line: E2 transactivation assay (pE2RE-1-CAT) in I-38 cells. In kind it is cell-based, bovine papilloma virus-1. The conditions noted are these: I-38 cells transfected with pE2RE-1-CAT, harvested after 48 hours; lower = more inhibition; listed as positive control compound.
Data set [12] has as its system multi-drug resistant 3T3 cells.
[13] abbreviates: Oligomer 38 versus unmodified Oligomer 39.

In the case of “CCA-TCC-CGA-CCT-CGC-GCT-CC (CCATCCCGACCTCGCGCTCC; chemistry not given here) [ISIS 5995]”, the “treatment time of maximum specific reduction of MDR1 mRNA” value in data set [1] (1 μm, 24, 48 and 72 hours tested) is 24 h. In addition, the “lowest concentration with some reduction in message levels” value in [1] (dose response 50-1000 nM, 24 hours, LIPOFECTIN) is recorded as 100 nM. The “effect on P-glycoprotein surface expression” value in [2] is on record as “less effective than an equivalent concentration of the cholesterol-conjugated analogs”. Also, in data set [3], the “reduction of P-glycoprotein (Western assays)” value was “at least 80%”. Also, the “reduction in MDR1 message levels” value in [4] (1.0 μm, 20 ug/ml LIPOFECTIN, 24 hours) is on record as “about 50%”. Further, the “time to normal levels of MDR1 mRNA after return to medium without oligonucleotide” value in [4] (after 24 hours exposure) is ≤ 24 h. Further, the “reduction in MDR1 message at maximal specific effect” value in [4] (approximately 1.0 μm, 24 hours, LIPOFECTIN (FIG. 1)) was “approximately 60%”. In addition, in [4] (24 hours), the “MDR1 mRNA Level (arbitrary units)” value is given as 226,087 arbitrary units and the “% Control (MDR1 mRNA)” value is 48%.

With “GGA*-CCG-GA*A*-GGT-A*CG-A*G (GGACCGGAAGGTACGAG; chemistry not fully specified) [Oligomer 38, A* = pentylamino functionality at 2′-position]”, the “change in Tm (Δ38-39) DNA” value in data set [5] (setting [13]) is “(6.1) degrees”. Besides, in [5] (against Oligomer 40, 4 μM each strand, 100 mM NaCl, 10 mM Phosphate, 0.1 mM EDTA, pH 7.0), the “Tm DNA” value turned out to be 54.5 degrees centigrade. Also, the “change in Tm (Δ38-39) RNA” value in data set [6] (setting [13]) was “(1.1) degrees”. The “Tm RNA” value in [6] (against Oligomer 41, 4 μM each strand, 100 mM NaCl, 10 mM Phosphate, 0.1 mM EDTA, pH 7.0) is given as 58.0 degrees centigrade.

As for U*GC-ATC-CCC-CAG-GCC-ACC-AT [ISIS 8005], the “ICAM-1 staining of liver sections” value in [7] (LPS-induced livers, HRP-conjugated secondary antibodies) was “virtually indistinguishable”. Further, the “overall cellular structure of liver” value in data set [7] (mouse, in vivo) was “no gross cellular defects”. Also, in [8], the “effect on c-raf mRNA levels” value was “no effect”. Also, the “effect on PECAM-1 mRNA levels” value in data set [9] is recorded as “no effect”. Moreover, in data set [10] (liver, 30 mg/kg i.v. 24 and 2 hours prior to LPS), the “reduction of hepatic ICAM-1 mRNA relative to LPS without oligonucleotide” value was “about 50%”. Besides, the “reversal of LPS-mediated induction of ICAM-1 mRNA in the lung” value in data set [10] (lung samples, 30 mg/kg) is recorded as “neither ISIS 3082 nor its 5′-cholesterol conjugate ISIS 8005 was able to reverse the LPS-mediated induction of ICAM-1 to any great degree”.

Take “5′-CTG-TCT-CCA-TCC-TCT-TCA-CT (CTGTCTCCATCCTCTTCACT; all phosphorothioate, sugars by position and methylation of C not given here) [Oligomer 42]”: the “percent acetylation (chloramphenicol acetyl transferase)” value in [11] was 29% and 30%.

Regarding “CAC-CAC-CCC-CCT-CGC-TGG-TC (CACCACCCCCCTCGCTGGTC; chemistry not given here) [ISIS 10221, reference compound]”, the MDR1/beta-actin ratio in [1] (repeated experiments, laser densitometry of autoradiograms) is reported as 1.01. Further, the “effect on P-glycoprotein surface expression” value in [2] is on record as “less effective than an equivalent concentration of the cholesterol-conjugated analogs”. The “non-specific effects at higher concentrations” value in data set [12] is “reduced beta-actin message levels and increased cytotoxicity”. Moreover, in data set [3], the “reduction of P-glycoprotein (Western assays)” value is reported as “did not reduce P-glycoprotein expression”. In [4] (24 hours), the “MDR1 mRNA Level (arbitrary units)” value is reported as 456,522 arbitrary units and the “% Control (MDR1 mRNA)” value is 96%.
